Reference: US4285941A, “Cephalosporin compounds and antibacterial drugs containing the same” (Eisai Co., Ltd., priority 1979, dated 1981)
Where a name gives a salt, the structure may show the parent alone.

Assays:
Assay in all cases: Minimal inhibitory concentration (MIC), standard agar dilution method
Assay type in all cases: cell-based
Escherichia coli NIHJ = conditions: Mueller Hinton agar, 37° C., 18 hours, Examples 1, 2, 4, 5, 6, 8 and 22 as sodium salts, others as free carboxylic acids
Experimental: (§1) The compounds obtained in these examples were tested for their antibacterial activities in vitro. Minimal inhibitory concentration (MIC) was determined by the standard agar dilution method of the Japan Society of Chemotherapy. Compounds were dissolved in appropriate solvents (sterilized water for sodium salts and acetone-water [1:1] for free acids) and serial two-fold dilutions were made. Sodium salt of Cefazolin was chosen as the control compound. One-ml aliquots of each dilution were mixed with 9 ml of Mueller Hinton agar in petri-dishes to make agar plates containing the compound at serially diluted concentrations. After agar hardened, plates were put in an incubator at 37° C. for 1.5-2 hours with the lids slightly open to evaporate acetone off the plates. Test organisms were grown for 18 hours at 37° C. in Trypticase Soy broth and diluted in saline to approximately 10^6 colony forming units per ml. A loopful of each cell suspension was applied on the agar plate mentioned above and the plates were incubated for 18 hours at 37° C. before MIC was determined. MIC values of the compounds of Examples 1, 2, 4, 5, 6, 8 and 22 were determined as their sodium salts and those of other compounds as free carboxylic acids.

[1] = system: Klebsiella pneumoniae EK-6; conditions: EK6, Mueller Hinton agar, 37° C., 18 hours, Examples 1, 2, 4, 5, 6, 8 and 22 as sodium salts, others as free carboxylic acids
Experimental: as §1

Proteus morganii EP-14 = conditions: Morganella morganii, EP14; Mueller Hinton agar, 37° C., 18 hours; Examples 1, 2, 4, 5, 6, 8 and 22 as sodium salts, others as free carboxylic acids
Experimental: as §1

[2] = system: Pseudomonas aeruginosa EP-172; conditions: EP172, Mueller Hinton agar, 37° C., 18 hours, Examples 1, 2, 4, 5, 6, 8 and 22 as sodium salts, others as free carboxylic acids
Experimental: as §1

[3] = system: Serratia marcescens ES-75; conditions: ES75, Mueller Hinton agar, 37° C., 18 hours, Examples 1, 2, 4, 5, 6, 8 and 22 as sodium salts, others as free carboxylic acids
Experimental: as §1

[4] = system: Staphylococcus aureus 209-P; conditions: Mueller Hinton agar, 37° C., 18 hours, Examples 1, 2, 4, 5, 6, 8 and 22 as sodium salts, others as free carboxylic acids
Experimental: as §1

MIC (Escherichia coli NIHJ) | MIC [1] | MIC (Proteus morganii EP-14) | MIC [2] | MIC [3] | MIC [4] | SMILES
6.25 µg/mL | 12.5 µg/mL | 25 µg/mL | 50 µg/mL | 12.5 µg/mL | 0.4 µg/mL | Cn1nnnc1SCC1=C(C(=O)O)N2C(=O)[C@@H](NC(=O)[C@H](NC(=O)c3coc4cc(O)ccc4c3=O)c3ccc(O)cc3)[C@H]2SC1 [Example 13, 7β-[D-2-(7-Hydroxychromone-3-carboxamido)-2-(4-hydroxyphenyl)acetamido]-3-[(1-methyltetrazol-5-yl)thiomethyl]-3-cephem-4-carboxylic acid]
0.4 µg/mL | ≤ 0.1 µg/mL | 25 µg/mL | 0.8 µg/mL | ≤ 0.1 µg/mL | 0.8 µg/mL | O=C(O)C1=C(CSc2ccccn2)CS[C@@H]2[C@H](NC(=O)[C@H](NC(=O)c3coc4cc(O)c(O)cc4c3=O)c3ccc(O)cc3)C(=O)N12 [Example 24, 7β-[D-2-(6,7-Dihydroxychromone-3-carboxamido)-2-(4-hydroxyphenyl)acetamido]-3-(2-pyridylthiomethyl)-3-cephem-4-carboxylic acid]
0.4 µg/mL | ≤ 0.1 µg/mL | 12.5 µg/mL | 0.8 µg/mL | ≤ 0.1 µg/mL | 3.13 µg/mL | O=C(O)Cn1nnnc1SCC1=C(C(=O)O)N2C(=O)[C@@H](NC(=O)[C@H](NC(=O)c3coc4cc(O)c(O)cc4c3=O)c3ccc(O)cc3)[C@H]2SC1 [Example 23]
1.56 µg/mL | ≤ 0.1 µg/mL | 50 µg/mL | 1.56 µg/mL | 0.4 µg/mL | 3.13 µg/mL | O=C(O)C1=C(CSc2nnc[nH]2)CS[C@@H]2[C@H](NC(=O)[C@H](NC(=O)c3coc4cc(O)c(O)cc4c3=O)c3ccc(O)cc3)C(=O)N12 [Example 22]
0.8 µg/mL | ≤ 0.1 µg/mL | 50 µg/mL | 1.56 µg/mL | 0.2 µg/mL | 0.8 µg/mL | O=C(O)C1=C(CSc2ncccn2)CS[C@@H]2[C@H](NC(=O)[C@H](NC(=O)c3coc4cc(O)c(O)cc4c3=O)c3ccc(O)cc3)C(=O)N12 [Example 26, 7β-[D-2-(6,7-Dihydroxychromone-3-carboxamido)-2-(4-hydroxyphenyl)acetamido]-3-(2-pyrimidinylthiomethyl)-3-cephem-4-carboxylic acid]
0.2 µg/mL | ≤ 0.1 µg/mL | 0.4 µg/mL | 0.4 µg/mL | ≤ 0.1 µg/mL | 0.8 µg/mL | Cn1nnnc1SCC1=C(C(=O)O)N2C(=O)[C@@H](NC(=O)[C@H](NC(=O)c3coc4cc(O)c(O)cc4c3=O)c3ccc(O)cc3)[C@H]2SC1 [Example 3, 7β-[D-2-(6,7-Dihydroxychromone-3-carboxamido)-2-(4-hydroxyphenyl)acetamido]-3-[(1-methyltetrazol-5-yl)thiomethyl]-3-cephem-4-carboxylic acid]
0.8 µg/mL | ≤ 0.1 µg/mL | 0.8 µg/mL | 3.13 µg/mL | ≤ 0.1 µg/mL | 1.56 µg/mL | Cc1nnc(SCC2=C(C(=O)O)N3C(=O)[C@@H](NC(=O)[C@H](NC(=O)c4coc5cc(O)c(O)cc5c4=O)c4ccccc4)[C@H]3SC2)s1 [Example 2, 7β-[D-2-(6,7-Dihydroxychromone-3-carboxamido)-2-phenyl-acetamido]-3-[(5-methyl-1,3,4-thiadiazol-2-yl)thiomethyl]-3-cephem-4-carboxylic acid]
6.25 µg/mL | 6.25 µg/mL | 6.25 µg/mL | 25 µg/mL | 3.13 µg/mL | ≤ 0.1 µg/mL | Cn1nnnc1SCC1=C(C(=O)O)N2C(=O)[C@@H](NC(=O)[C@H](NC(=O)c3coc4ccccc4c3=O)c3ccccc3)[C@H]2SC1 [Example 16, 7β-[D-2-(Chromone-3-carboxamido)-2-phenylacetamido]-3-[(1-methyltetrazol-5-yl)thiomethyl]-3-cephem-4-carboxylic acid]
0.8 µg/mL | ≤ 0.1 µg/mL | 50 µg/mL | 0.8 µg/mL | 0.8 µg/mL | 12.5 µg/mL | O=C(O)Cn1nnnc1SCC1=C(C(=O)O)N2C(=O)[C@@H](NC(=O)[C@H](NC(=O)c3coc4c(O)c(O)c(O)cc4c3=O)c3ccc(O)cc3)[C@H]2SC1 [Example 30, 7β-[D-2-(6,7,8-Trihydroxychromone-3-carboxamido)-2-(4-hydroxyphenyl)acetamido]-3-[(1-carboxymethyltetrazol-5-yl)thiomethyl]-3-cephem-4-carboxylic acid]
3.13 µg/mL | ≤ 0.1 µg/mL | 50 µg/mL | 0.4 µg/mL | 0.8 µg/mL | 3.13 µg/mL | Cn1nnnc1SCC1=C(C(=O)O)N2C(=O)[C@@H](NC(=O)[C@H](NC(=O)c3coc4c(O)c(O)c(O)cc4c3=O)c3ccc(O)cc3)[C@H]2SC1 [Example 28, 7β-[D-2-(6,7,8-Trihydroxychromone-3-carboxamido)-2-(4-hydroxyphenyl)acetamido]-3-[(1-methyltetrazol-5-yl)thiomethyl]-3-cephem-4-carboxylic acid]
6.25 µg/mL | 12.5 µg/mL | 25 µg/mL | 100 µg/mL | 25 µg/mL | 0.4 µg/mL | Cn1nnnc1SCC1=C(C(=O)O)N2C(=O)[C@@H](NC(=O)[C@H](NC(=O)c3coc4ccccc4c3=O)c3ccc(O)cc3)[C@H]2SC1 [Example 15, 7β-[D-2-(Chromone-3-carboxamido)-2-(4-hydroxyphenyl)acetamido]-3-[(1-methyltetrazol-5-yl)thiomethyl]-3-cephem-4-carboxylic acid]
0.4 µg/mL | ≤ 0.1 µg/mL | 12.5 µg/mL | 0.4 µg/mL | 0.2 µg/mL | 0.8 µg/mL | O=C(O)C1=C(CSc2nncs2)CS[C@@H]2[C@H](NC(=O)[C@H](NC(=O)c3coc4cc(O)c(O)cc4c3=O)c3ccc(O)cc3)C(=O)N12 [Example 19, 7β-[D-2-(6,7-Dihydroxychromone-3-carboxamido)-2-(4-hydroxyphenyl)acetamido]-3-[(1,3,4-thiadiazol-2-yl)thiomethyl]-3-cephem-4-carboxylic acid]
1.56 µg/mL | 1.56 µg/mL | > 100 µg/mL | > 100 µg/mL | > 100 µg/mL | 0.4 µg/mL | Cc1nnc(SCC2=C(C(=O)O)N3C(=O)[C@@H](NC(=O)Cn4cnnn4)[C@H]3SC2)s1 [Sodium salt of Cefazolin, reference compound]

SMILES | MIC (Escherichia coli NIHJ) | MIC [1] | MIC (Proteus morganii EP-14) | MIC [2] | MIC [3] | MIC [4]
CC(=O)Oc1cc2occ(C(=O)N[C@@H](C(=O)N[C@@H]3C(=O)N4C(C(=O)O)=C(CSc5nnnn5C)CS[C@H]34)c3ccc(O)cc3)c(=O)c2cc1OC(C)=O [Example 7, 7β-[D-2-(6,7-Diacetoxychromone-3-carboxamido)-2-(4-hydroxyphenyl)acetamido]-3-[(1-methyltetrazol-5-yl)thiomethyl]-3-cephem-4-carboxylic acid] | ≤ 0.1 µg/mL | ≤ 0.1 µg/mL | 0.4 µg/mL | 0.4 µg/mL | ≤ 0.1 µg/mL | 1.56 µg/mL
CC(=O)Oc1cc2occ(C(=O)N[C@@H](C(=O)N[C@@H]3C(=O)N4C(C(=O)O)=C(CSc5nnc(C)s5)CS[C@H]34)c3ccc(O)cc3)c(=O)c2cc1OC(C)=O [Example 8, 7β-[D-2-(6,7-Diacetoxychromone-3-carboxamido)-2-(4-hydroxyphenyl)acetamido]-3-[(5-methyl-1,3,4-thiadiazol-2-yl)thiomethyl]-3-cephem-4-carboxylic acid] | 0.8 µg/mL | ≤ 0.1 µg/mL | 1.56 µg/mL | 1.56 µg/mL | ≤ 0.1 µg/mL | 3.13 µg/mL
CC(=O)Oc1cc2c(=O)c(C(=O)N[C@@H](C(=O)N[C@@H]3C(=O)N4C(C(=O)O)=C(CSc5nnnn5CC(=O)O)CS[C@H]34)c3ccc(O)cc3)coc2c(OC(C)=O)c1OC(C)=O [Example 31, 7β-[D-2-(6,7,8-Triacetoxychromone-3-carboxamido)-2-(4-hydroxyphenyl)acetamido]-3-[(1-carboxymethyltetrazol-5-yl)thiomethyl]-3-cephem-4-carboxylicacid] | 0.8 µg/mL | ≤ 0.1 µg/mL | 25 µg/mL | 0.8 µg/mL | 0.8 µg/mL | 12.5 µg/mL
CC(=O)Oc1ccc2c(=O)c(C(=O)N[C@@H](C(=O)N[C@@H]3C(=O)N4C(C(=O)O)=C(CSc5nnc(C)s5)CS[C@H]34)c3ccc(O)cc3)coc2c1OC(C)=O [Example 12, 7β[D-2-(7,8-Diacetoxychromone-3-carboxamido)-2-(4-hydroxyphenyl)acetamido]-3-[(5-methyl-1,3,4-thiadiazol-2-yl)thiomethyl]-3-cephem-4-carboxylic acid] | 1.56 µg/mL | ≤ 0.1 µg/mL | 3.13 µg/mL | 1.56 µg/mL | 0.2 µg/mL | 1.56 µg/mL
